Data taken from patent US10300061B2, “Aminothiazole compounds as protein kinase inhibitors” (priority 2017, dated 2019).
Counter-ions that a name gives are not always drawn.

Assays:
GIST882 = GIST882 cell proliferation assay; format: cell-based; settings: Homo sapiens, 144 hours
Procedure: (§1) GIST882, GIST48 and GIST430 cells were all cultured in incubators maintained at 37° C. and 5% CO2. GIST882 was cultured in RPMI-1640 supplemented with 20% fetal bovine serum (FBS). GIST48 was cultured with F10 supplemented with 20% FBS, 0.5% Mito, serum extender (BD Bioscience, 355006) and 1% pituitary extract bovine (BD Bioscience 354123). GIST430 was cultured in IMDM supplemented with 20% FBS. GIST882, GIST430 and GIST48 cells were provided by Dr. Jonathan A. Fletcher (Harvard Medical School, US).
(§2) GIST cells (4×10^4) were treated with different dosage of compounds. The treated GIST882 cells were incubated for 144 hours and GIST48 and GIST430 cells were incubated for 120 hours at 37° C. in 5% CO2. Cell proliferation was determined by incubating the cells with […] (Clontech, Calif., US) for 1 hour. The absorbance was measured at 450 nm using SpectraMax M5 microplate reader (Molecular Devices, US).

MOLM-13 = MOLM-13 MTS cell viability assay; format: cell-based; settings: Homo sapiens, leukemia cell line, 72 hours
Procedure: (§3) A study was carried out as follows to evaluate in vitro anticancer activity of certain compounds prepared according to EXAMPLE 1 using cell lines and MTS cell viability assays (MTS represents 3-(4,5-dimethylthiazol-2-yl)-5-(3-carboxymethoxyphenyl)-2-(4-sulfophenyl)-2H-tetrazolium).
(§4) Leukemia cell lines MOLM-13, MV4:11, and Kasumin-1 were purchased from American Type Culture Collection (ATCC, Manassas, Va., USA). The human gastrointestinal stromal tumor GIST-T1 cell line was purchased from Cosmo Bio Co., LTD (Tokyo, Japan). All leukemia cell lines were maintained in RPMI 1640 medium supplemented with 10% fetal bovine serum (FBS), 10 U/ml penicillin, and 10 µg/ml streptomycin at 37° C. and 5% CO2. The cell line GIST-T1 was cultured in DMEM medium supplemented with 10% FBS, 0.01% nonessential amino acids, 10 U/ml penicillin, and 10 µg/ml streptomycin.
(§5) Cells were seeded in 96-well culture plates at a density of 1×10^4 cells/100 μl/well in triplicates and were treated for 72 hours with an indicated concentration of test compound ranging from 1 nM to 10 μM. Colorimetric CellTiter 96® Aqueous One Solution Cell Proliferation assay (MTS assay; Promega, Madison, Wis., USA) was used to determine the cytotoxicity. The optical density at 492 nm was measured using a microplate photometer (Victor2; Perkin-Elmer, Waltham, Mass., USA). IC50 values were determined by MTS assay when cells were treated with test compound for 72 hours and calculated with GraphPad Prism 6. Each experiment was in triplicate.

GIST430 = GIST430 cell proliferation assay; format: cell-based; settings: Homo sapiens, 120 hours
Procedure: as §1, §2

Kasumi-1 = Kasumi-1 MTS cell viability assay; format: cell-based; settings: Homo sapiens, leukemia cell line, 72 hours
Procedure: as §3, §4, §5

GIST-T1 = GIST-T1 MTS assay; format: cell-based; settings: Homo sapiens, GISTT1; gastrointestinal stromal tumor cell line, 72 hours
Procedure: as §3, §4
as §5, with “GIST-T1 cells” for “Cells”, “8000” for “1×10^4”

MV4:11 = MV4:11 MTS cell viability assay; format: cell-based; settings: Homo sapiens, leukemia cell line, 72 hours
Procedure: as §3, §4, §5

GIST48 = GIST48 cell proliferation assay; format: cell-based; settings: Homo sapiens, 120 hours
Procedure: as §1, §2

VEGFR2 = molecular target: T1, VEGFR2 (Homo sapiens, UniProt P35968); assay: VEGFR2 Kinase-Glo kinase assay; format: biochemical; settings: GST-VEGFR2, 1 μM ATP, 30° C. 120 minutes
T1 construct: The recombinant GST-VEGFR2 (residues V789-V1356) containing kinase domain; GST; made in house; host or cells: Sf9 insect cells
Procedure: The recombinant GST-VEGFR2 (residues V789-V1356) containing kinase domain was expressed in Sf9 insect cells. The kinase assay was carried out in 96-well plates with tested compound in a final volume of 50 μl reaction at 30° C. for 120 minutes with following components: 25 mM HEPES pH 7.4, 10 mM MgCl2, 4 mM MnCl2, 0.5 mM Na3VO4, 2 mM DTT, 0.02% Triton X100, 0.01% BSA, 1 μM ATP, 2 μM polyGlu4:Tyr peptide, 50˜100 ng recombinant VEGFR2. Following incubation, 50 μl Kinase-Glo Plus Reagent (Promega, Madison, Wis., USA) was added to each well and the mixture was incubated at 25° C. for 20 min. A 70-μL aliquot of each reaction mixture was transferred to a black microtiter plate and the luminescence was measured on Wallac Vector 1420 multilabel counter (PerkinElmer, Shelton, Conn., USA).

T1 sequence (P35968 789-1356): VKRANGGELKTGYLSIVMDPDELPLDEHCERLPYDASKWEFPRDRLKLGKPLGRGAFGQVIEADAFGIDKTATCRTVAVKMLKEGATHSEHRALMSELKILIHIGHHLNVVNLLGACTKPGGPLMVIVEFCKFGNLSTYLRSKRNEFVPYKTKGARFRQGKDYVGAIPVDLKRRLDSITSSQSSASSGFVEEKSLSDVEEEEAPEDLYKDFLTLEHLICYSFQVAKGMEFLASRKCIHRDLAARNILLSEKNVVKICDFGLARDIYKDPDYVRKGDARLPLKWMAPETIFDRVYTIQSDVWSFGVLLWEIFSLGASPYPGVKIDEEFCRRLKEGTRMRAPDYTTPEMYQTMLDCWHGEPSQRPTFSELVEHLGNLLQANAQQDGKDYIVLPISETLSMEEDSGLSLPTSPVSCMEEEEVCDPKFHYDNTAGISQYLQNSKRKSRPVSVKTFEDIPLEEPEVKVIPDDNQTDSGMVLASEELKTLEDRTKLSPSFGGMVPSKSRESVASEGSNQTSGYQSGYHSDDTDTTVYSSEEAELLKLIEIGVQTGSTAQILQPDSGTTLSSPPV

Row | Compound | GI50 (GIST882) | GI50 (MOLM-13) | GI50 (GIST430) | GI50 (Kasumi-1) | GI50 (GIST-T1) | GI50 (MV4:11) | GI50 (GIST48) | IC50 (VEGFR2)
1 | CCN1CCN(c2cc(Nc3ncc(-c4cccnc4)s3)nc(C)n2)CC1 [Compound 7, [6-(4-Ethyl-piperazin-1-yl)-2-methyl-pyrimidin-4-yl]-(5-pyridin-3-yl-thiazol-2-yl)-amine hydrochloride salt] | 20 nM | 62 nM | 60 nM | 266 nM | 53 nM | 34 nM | 820 nM | 
2 | CCN1CCN(c2cc(Nc3ncc(-c4ccncc4)s3)nc(C)n2)CC1 [Compound 1, [6-(4-Ethyl-piperazin-1-yl)-2-methyl-pyrimidin-4-yl]-(5-pyridin-4-yl-thiazol-2-yl)-amine hydrochloride salt] | 5 nM | 10 nM | 3.8 nM | 11 nM | 11 nM | 13 nM | 19 nM | < 30 nM
3 | CCN1CCN(c2cc(Nc3ncc(-c4cncnc4)s3)nc(C)n2)CC1 [Compound 12, [6-(4-Ethyl-piperazin-1-yl)-2-methyl-pyrimidin-4-yl]-(5-pyrimidin-5-yl-thiazol-2-yl)-amine hydrochloride salt] |  | 211 nM |  | 349 nM | 119 nM | 132 nM |  | 
4 | Cc1nc(Nc2ncc(-c3cccnc3)s2)cc(N2CCC(N(C)C)CC2)n1 [Compound 10, [6-(4-Dimethylamino-piperidin-1-yl)-2-methyl-pyrimidin-4-yl]-(5-pyridin-3-yl-thiazol-2-yl)-amine hydrochloride salt] |  |  |  |  |  |  |  | < 30 nM
5 | Cc1nc(Nc2ncc(-c3cccnc3)s2)cc(N2CCN(CCO)CC2)n1 [Compound 9, 2-{4-[2-Methyl-6-(5-pyridin-3-yl-thiazol-2-ylamino)-pyrimidin-4-yl]-piperazin-1-yl}-ethanol hydrochloride salt] |  |  |  |  |  |  |  | < 30 nM
